The values below are quoted from earlier work in patent publication US9260408B2, “Dihydroquinoline-2-one derivatives” (Hoffmann-La Roche Inc., priority 2011, dated 2016).

The subject of series [1] is rats with experimental heart failure. Particulars: rat, in vivo; cited from earlier work.
Series [2] deals with rat model of chronic kidney disease. The conditions noted are these: cited from earlier work.

Regarding `N#Cc1ccc(C2CCCc3cncn32)cc1` (centres unmarked) [FAD286], in series [1], the “blood pressure and cardiovascular function and structure” value is “improved”; the “kidney function and morphology” value is given as “improve”. Also, in series [2] (FAD286: 4 weeks of treatment, spironolactone: 4 and 8 weeks of treatment), the plasma aldosterone entry was “reduced”. Moreover, the “renal effects (albuminuria, azotemia, renovascular hypertrophy, glomerular injury, PAI-1 and osteopontin mRNA, tubulointerstitial fibrosis)” value in series [2] (angiotensin II and high salt treatment) is “prevented these renal effects”. Besides, in series [2] (rat, in vivo), the “angiotensin II and salt-stimulated PAI-1 mRNA expression in the aorta and the heart” value is on record as “not”.
